Experimental data: patent publication US20140343049A1, “DIHYDROFURAN DERIVATIVES AS INSECTICIDAL COMPOUNDS” (SYNGENTA PARTICIPATIONS AG, priority 2011, published 2014)

What was measured:
Type in all cases: in vivo
[1] = test system: Diabrotica balteata (corn root worm); assay: Diabrotica balteata L2 larvae test on artificial diet; conditions: 120 h, 200 ppm (concentration in well 18 ppm), 5 days, larval mortality and growth regulation
Method in brief: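 Artificial diet treated with test solution at 200 ppm or 12.5 ppm application rate (in-well concentration stated as 18 ppm), dried, then infested with 6-10 L2 larvae per well. Larval mortality and growth regulation scored after 5 days.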

[2] = test system: Spodoptera littoralis (Egyptian cotton leafworm); assay: Spodoptera littoralis cotton leaf disc spray test; conditions: foliar, 72 h, cotton leaf discs sprayed at 200 ppm, 5 L1 larvae, mortality, feeding behavior, growth regulation 3 days after treatment
Text: Cotton leaf discs were placed on agar in a 24-well microtiter plate and sprayed with test solutions at an application rate of 200 ppm. After drying, the leaf discs were infested with 5 L1 larvae. The samples were checked for mortality, feeding behavior, and growth regulation 3 days after treatment (DAT).

[3] = test system: Tetranychus urticae (two-spotted spider mite); assay: Tetranychus urticae bean leaf disc spray test; conditions: foliar, 192 h, bean leaf discs sprayed at 200 ppm, mixed ages, egg, larval and adult mortality 8 days later
Method in brief: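 Leaf discs of bean on agar were sprayed at 200 ppm, dried, then infested with mixed-age mites. Egg, larval and adult mortality were scored 8 days later.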

[4] = test system: Spodoptera littoralis (Egyptian cotton leaf worm); assay: Spodoptera littoralis (systemic) test, compound in agar taken up by salad roots; conditions: 120 h, application rate 12.5 ppm, checked 5 days after infestation for mortality, repellent effect, feeding behavior, growth regulation
Text: (§1) Test compounds were applied by pipette into 24 well plates and mixed with agar. Salad seeds were placed on the agar and the multi well plate is closed by another plate which contains also agar. After 7 days the roots have absorbed the compound and the salad has grown into the lid plate. The salad leafs were now cut off into the lid plate. Spodoptera eggs were pipette through a plastic stencil on a humid gel blotting paper and the plate closed with it. The samples are checked for mortality, repellent effect, feeding behavior, and growth regulation 5 days after infestation. Application rate: 12.5 ppm
as §1, with “infestation.” for “infestation. Application rate: 12.5 ppm”

[5] = test system: Plutella xylostella (diamond back moth); assay: Plutella xylostella L2 larvae test on artificial diet; conditions: 144 h, 200 ppm (concentration in well 18 ppm), 6 days, larval mortality and growth regulation
Experimental: 24-well microtiter plate (MTP) with artificial diet was treated with test solutions at an application rate of 200 ppm (concentration in well 18 ppm) by pipetting. After drying, the MTPs were infested with L2 larvae (7-12 per well). After an incubation period of 6 days, samples were checked for larval mortality and growth regulation.

[6] = test system: Myzus persicae (green peach aphid); assay: Myzus persicae (sachet) mixed population test; conditions: 120 h, sucrose solution, application rate 12.5 ppm, mortality 5 days after infestation
Text: Test compounds were applied by pipette into 24 well plates and mixed with Sucrose solution. The plates were closed with a stretched Parafilm. A plastic stencil with 24 holes is placed onto the plate and infested pea seedlings were placed directly on the Parafilm. The infested plate is closed with a gel blotting paper and another plastic stencil and then turned upside down. 5 days after infestation the samples were checked on mortality. Application rate: 12.5 ppm.

[7] = test system: Thrips tabaci (onion thrips); assay: Thrips tabaci sunflower leaf disc spray test; conditions: foliar, 168 h, sunflower leaf discs sprayed at 200 ppm, mixed ages, mortality after 7 days
Experimental: Sunflower leaf discs were placed on agar in a 24-well microtiter plate and sprayed with test solutions at an application rate of 200 ppm. […] After drying, the leaf discs were infested with a thrip population of mixed ages. After an incubation period of 7 days, samples were checked for mortality.

[8] = test system: Heliothis virescens (tobacco budworm); assay: Heliothis virescens egg test on artificial diet; conditions: 96 h, 200 ppm (concentration in well 18 ppm), eggs 0-24 h old, 4 days, egg mortality, larval mortality, growth regulation
Experimental: Eggs (0-24 h old) were placed in 24-well microtiter plate on artificial diet and treated with test solutions at an application rate of 200 ppm (concentration in well 18 ppm) by pipetting. After an incubation period of 4 days, samples were checked for egg mortality, larval mortality, and growth regulation.

Cc1cc(C2=CC(c3cc(Cl)cc(Cl)c3)(C(F)(F)F)OC2)ccc1C(=O)NCC(=O)NCC(F)(F)F (centres unmarked) [Compound A1, 4-[5-(3,5-Dichloro-phenyl)-5-trifluoromethyl-2,5-dihydro-furan-3-yl]-2-methyl-N-[(2,2,2-trifluoro-ethylcarbamoyl)-methyl]-benzamide]
≥ 80%: pest or weed control at 200 ppm [1] | pest or weed control at 200 ppm [2] | pest or weed control at 200 ppm [3] | pest or weed control at 12.5 ppm [4] | pest or weed control at 200 ppm [5] | pest or weed control at 12.5 ppm [6] | pest or weed control at 200 ppm [7] | pest or weed control at 200 ppm [8]

Cc1cc(C2=CC(c3cc(Cl)cc(Cl)c3)(C(F)(F)F)OC2)ccc1C(=O)NC1CS(=O)(=O)C1 (centres unmarked) [Compound A15]
≥ 80%: pest or weed control at 200 ppm [1] | pest or weed control at 200 ppm [2] | pest or weed control at 200 ppm [3] | pest or weed control at 12.5 ppm [4] | pest or weed control at 200 ppm [5] | pest or weed control at 12.5 ppm [6] | pest or weed control at 200 ppm [7] | pest or weed control at 200 ppm [8]

CCN1OC[C@H](NC(=O)c2ccc(C3=CC(c4cc(Cl)cc(Cl)c4)(C(F)(F)F)OC3)cc2C)C1=O (stereo partly drawn) [Compound A16, 4-[5-(3,5-Dichloro-phenyl)-5-trifluoromethyl-2,5-dihydro-furan-3-yl]-N—((S)-2-ethyl-3-oxo-isoxazolidin-4-yl)-2-methyl-benzamide]
≥ 80%: pest or weed control at 200 ppm [1] | pest or weed control at 200 ppm [2] | pest or weed control at 200 ppm [3] | pest or weed control at 12.5 ppm [4] | pest or weed control at 200 ppm [5] | pest or weed control at 12.5 ppm [6] | pest or weed control at 200 ppm [7] | pest or weed control at 200 ppm [8]

Cc1nc(C2=CC(c3cc(Cl)cc(Cl)c3)(C(F)(F)F)OC2)ccc1C(=O)NCC(=O)NCC(F)(F)F (centres unmarked) [Compound C5]
≥ 80%: pest or weed control at 200 ppm [1] | pest or weed control at 200 ppm [2] | pest or weed control at 200 ppm [3] | pest or weed control at 12.5 ppm [4] | pest or weed control at 200 ppm [5] | pest or weed control at 12.5 ppm [6] | pest or weed control at 200 ppm [7] | pest or weed control at 200 ppm [8]

Cc1nc(C2=CC(c3cc(Cl)cc(Cl)c3)(C(F)(F)F)OC2)ccc1C(=O)NC1CS(=O)(=O)C1 (centres unmarked) [Compound C13]
≥ 80%: pest or weed control at 200 ppm [1] | pest or weed control at 200 ppm [2] | pest or weed control at 200 ppm [3] | pest or weed control at 12.5 ppm [4] | pest or weed control at 200 ppm [5] | pest or weed control at 12.5 ppm [6] | pest or weed control at 200 ppm [7] | pest or weed control at 200 ppm [8]

Cc1cc(C2=CO[C@@](c3cc(Cl)cc(Cl)c3)(C(F)(F)F)C2)ccc1C(=O)NCC(=O)NCC(F)(F)F [Compound D5, 4-[(2S)-2-(3,5-dichlorophenyl)-2-(trifluoromethyl)-3H-furan-4-yl]-2-methyl-N-[2-oxo-2-(2,2,2-trifluoroethylamino)ethyl]benzamide]
≥ 80%: pest or weed control at 200 ppm [1] | pest or weed control at 200 ppm [2] | pest or weed control at 200 ppm [3] | pest or weed control at 12.5 ppm [4] | pest or weed control at 200 ppm [5] | pest or weed control at 12.5 ppm [6] | pest or weed control at 200 ppm [7] | pest or weed control at 200 ppm [8]

Cc1cc(C2=CC(c3cc(Cl)cc(Cl)c3)(C(F)(F)F)OC2)ccc1C(=O)NCC1CCCO1 (centres unmarked) [Compound D8]
≥ 80%: pest or weed control at 200 ppm [3] | pest or weed control at 12.5 ppm [4] | pest or weed control at 12.5 ppm [6] | pest or weed control at 200 ppm [7]

Cc1cc(C2=CC(c3cc(Cl)cc(Cl)c3)(C(F)(F)F)OC2)ccc1C(=O)NCc1ccccn1 (centres unmarked) [Compound D15]
≥ 80%: pest or weed control at 200 ppm [1] | pest or weed control at 200 ppm [2] | pest or weed control at 200 ppm [3] | pest or weed control at 12.5 ppm [4] | pest or weed control at 200 ppm [5] | pest or weed control at 12.5 ppm [6] | pest or weed control at 200 ppm [7] | pest or weed control at 200 ppm [8]

O=C(CNC(=O)c1ccc(C2=CC(c3cc(Cl)cc(Cl)c3)(C(F)(F)F)OC2)nc1Cl)NCC(F)(F)F (centres unmarked) [Compound F1, 2-Chloro-6-[5-(3,5-dichloro-phenyl)-5-trifluoromethyl-2,5-dihydro-furan-3-yl]-N-[(2,2,2-trifluoro-ethylcarbamoyl)-methyl]-nicotinamide]
≥ 80%: pest or weed control at 200 ppm [1] | pest or weed control at 200 ppm [2] | pest or weed control at 200 ppm [3] | pest or weed control at 12.5 ppm [4] | pest or weed control at 200 ppm [5] | pest or weed control at 12.5 ppm [6] | pest or weed control at 200 ppm [7] | pest or weed control at 200 ppm [8]
